Measured values from PMC3603449, “The affinity purification and characterization of ATP synthase complexes from mitochondria” (Open Biology, 2013).

Molecular target: T1, bovine F1Fo-ATPase (F-ATP synthase), F1 catalytic site (Bos taurus, UniProt P00829+P19483)
T1 construct: gene ATP5F1B; native purification from heart mitochondria; with ATP synthase F(1) complex subunit gamma, mitochondrial; ATP synthase F(1) complex subunit delta, mitochondrial; ATP synthase F(1) complex subunit epsilon, mitochondrial; ATP synthase F(0) complex subunit C1, mitochondrial (subunit c); ATP synthase F(0) complex subunit a; ATP synthase subunit O, mitochondrial (OSCP); ATP synthase F(0) complex subunit B1, mitochondrial (subunit b); ATP synthase subunit d, mitochondrial; ATP synthase-coupling factor 6, mitochondrial (F6); ATP synthase protein 8 (A6L); ATP synthase subunit e, mitochondrial; ATP synthase subunit f, mitochondrial; ATP synthase subunit g, mitochondrial
Experiment: ATP synthesis in proteoliposomes with bacteriorhodopsin, luciferin-luciferase
Assay type: biochemical
Settings: turnover only; phosphate, pH 7.4, white light, I1-60GFP present

## Nc1ncnc2c1ncn2[C@@H]1O[C@H](COP(=O)(O)OP(=O)(O)O)[C@@H](O)[C@H]1O [ADP]
  ATP synthesis in proteoliposomes with bacteriorhodopsin, luciferin-luciferase: On illumination with white light, ATP was synthesized in a linear manner
